System: NHE1
Assay: not given
Details: Cuello et al., Mol Pharmacol 71:799-806, 2007; cited from earlier work

Compound | basal NHE1 activity | phosphorylation of NHE1 and phenylephrine-induced enhanced NHE1 activity
Cc1ccc(-c2c(C(=O)CF)n(CCCO)c3ncnc(N)c23)cc1 [fmk] | without affecting basal activity | inhibit phosphorylation of NHE1

Biological target: Human RSK2 (Homo sapiens (Human), UniProt P51812)
Assay: Human RSK2 Assay (Kinase Glo Plus, residual ATP)
Assay type: biochemical
Details: 0.75 nM His-RSK2, 0.75 μM ATP, 1.0 μM S6 Kinase/RSK Substrate Peptide 1
Summary of the method: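 His-RSK2 (0.75 nM) with 0.75 μM ATP and 1.0 μM S6 kinase/RSK substrate peptide in HEPES pH 7.5 buffer with Mg/Mn, 90 min at 28° C. Residual ATP read by Kinase Glo Plus luminescence; percent of control fitted to a 4-parameter logistic, IC50 taken as inflection point.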

Sequence of Human RSK2 (P51812 whole entry): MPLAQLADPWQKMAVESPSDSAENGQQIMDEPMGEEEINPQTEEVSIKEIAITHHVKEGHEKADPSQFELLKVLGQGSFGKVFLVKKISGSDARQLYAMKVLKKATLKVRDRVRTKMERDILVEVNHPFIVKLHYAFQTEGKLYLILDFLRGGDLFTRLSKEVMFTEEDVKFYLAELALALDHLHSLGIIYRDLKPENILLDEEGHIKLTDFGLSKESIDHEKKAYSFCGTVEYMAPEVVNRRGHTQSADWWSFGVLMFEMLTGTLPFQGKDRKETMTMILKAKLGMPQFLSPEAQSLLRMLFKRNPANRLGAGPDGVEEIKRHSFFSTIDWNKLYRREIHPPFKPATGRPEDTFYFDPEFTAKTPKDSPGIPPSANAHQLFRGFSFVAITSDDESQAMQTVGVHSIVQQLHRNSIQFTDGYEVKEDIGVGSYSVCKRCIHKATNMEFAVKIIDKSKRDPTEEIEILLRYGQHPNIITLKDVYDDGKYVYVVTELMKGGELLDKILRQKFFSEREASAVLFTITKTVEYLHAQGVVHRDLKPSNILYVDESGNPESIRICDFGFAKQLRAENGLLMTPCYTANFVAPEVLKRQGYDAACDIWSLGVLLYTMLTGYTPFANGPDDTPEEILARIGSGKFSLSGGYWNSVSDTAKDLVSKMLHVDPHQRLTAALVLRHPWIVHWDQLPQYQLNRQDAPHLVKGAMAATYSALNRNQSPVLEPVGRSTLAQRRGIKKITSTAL

Compound | IC50 [nM]
CCn1c(NC(=O)c2ccc3cc4n(c3n2)[C@H](C)CNC4=O)nc2ccccc21 [Example 72, (9R)-N-(1-ethyl-1H-benzimidazol-2-yl)-9-methyl-6-oxo-6,7,8,9-tetrahydropyrido[3′,2′:4,5]pyrrolo[1,2-a]pyrazine-2-carboxamide] | 26.5
C[C@H]1CNC(=O)c2cc3ccc(C(=O)Nc4nc5ccccc5n4CCCN(C)C)nc3n21 [Example 75, (9S)-N-{1-[3-(dimethylamino)propyl]-1H-benzimidazol-2-yl}-9-methyl-6-oxo-6,7,8,9-tetrahydropyrido[3′,2′:4,5]pyrrolo[1,2-a]pyrazine-2-carboxamide] | 265
C[C@@H]1CNC(=O)c2cc3ccc(C(=O)Nc4nc5ccccc5n4CCCN(C)C)nc3n21 [Example 76, (9R)-N-{1-[3-(dimethylamino)propyl]-1H-benzimidazol-2-yl}-9-methyl-6-oxo-6,7,8,9-tetrahydropyrido[3′,2′:4,5]pyrrolo[1,2-a]pyrazine-2-carboxamide] | 54
CC(C)(C)c1cc(NC(=O)c2ccc3cc4n(c3n2)CCCNC4=O)no1 [Example 79, N-(5-tert-butyl-1,2-oxazol-3-yl)-6-oxo-7,8,9,10-tetrahydro-6H-pyrido[3′,2′:4,5]pyrrolo[1,2-a][1,4]diazepine-2-carboxamide] | 19
Cc1cc(NC(=O)c2ccc3cc4n(c3n2)CCCNC4=O)no1 [Example 80, N-(5-methyl-1,2-oxazol-3-yl)-6-oxo-7,8,9,10-tetrahydro-6H-pyrido[3′,2′:4,5]pyrrolo[1,2-a][1,4]diazepine-2-carboxamide] | 19
Cc1cc(NC(=O)c2ccc3cc4n(c3n2)C(C)CCNC4=O)no1 (centres unmarked) [Example 82, 10-methyl-N-(5-methyl-1,2-oxazol-3-yl)-6-oxo-7,8,9,10-tetrahydro-6H-pyrido[3′,2′:4,5]pyrrolo[1,2-a][1,4]diazepine-2-carboxamide] | 5.2
Cc1cc(NC(=O)c2ccc3cc4n(c3n2)[C@@H](C)CNC4=O)no1 [Example 83, (9S)-9-methyl-N-(5-methyl-1,2-oxazol-3-yl)-6-oxo-6,7,8,9-tetrahydropyrido[3′,2′:4,5]pyrrolo[1,2-a]pyrazine-2-carboxamide] | 380
Cc1cc(NC(=O)c2ccc3cc4n(c3n2)[C@H](C)CNC4=O)no1 [Example 84, (9R)-9-methyl-N-(5-methyl-1,2-oxazol-3-yl)-6-oxo-6,7,8,9-tetrahydropyrido[3′,2′:4,5]pyrrolo[1,2-a]pyrazine-2-carboxamide] | 6.6
CC1CNC(=O)c2cc3ccc(C(=O)Nc4cccnc4)nc3n21 (centres unmarked) [Example 101, 9-methyl-6-oxo-N-(pyridin-3-yl)-6,7,8,9-tetrahydropyrido[3′,2′:4,5]pyrrolo[1,2-a]pyrazine-2-carboxamide] | 120
CNC(=O)c1csc(NC(=O)c2ccc3cc4n(c3n2)C(C)CNC4=O)n1 (centres unmarked) [Example 102, 9-methyl-N-[4-(methylcarbamoyl)-1,3-thiazol-2-yl]-6-oxo-6,7,8,9-tetrahydropyrido[3′,2′:4,5]pyrrolo[1,2-a]pyrazine-2-carboxamide] | 130
CC1CNC(=O)c2cc3ccc(C(=O)Nc4nccs4)nc3n21 (centres unmarked) [Example 103, 9-methyl-6-oxo-N-(1,3-thiazol-2-yl)-6,7,8,9-tetrahydropyrido[3′,2′:4,5]pyrrolo[1,2-a]pyrazine-2-carboxamide] | 330
Cn1cc(NC(=O)c2ccc3cc4n(c3n2)CCCNC4=O)nc1C(=O)NC1CCCC1 [Example 104, N-[2-(cyclopentylcarbamoyl)-1-methyl-1H-imidazol-4-yl]-6-oxo-7,8,9,10-tetrahydro-6H-pyrido[3′,2′:4,5]pyrrolo[1,2-a][1,4]diazepine-2-carboxamide] | 1.6

The next lines start with the values.

IC50 [nM] | Compound
4.3 | O=C(Nc1cc(-c2ccccc2)no1)c1ccc2cc3n(c2n1)CCCNC3=O [Example 81, 6-oxo-N-(3-phenyl-1,2-oxazol-5-yl)-7,8,9,10-tetrahydro-6H-pyrido[3′,2′:4,5]pyrrolo[1,2-a][1,4]diazepine-2-carboxamide]
109 | CCc1cc(NC(=O)c2ccc3cc4n(c3n2)CC(C)(C)CNC4=O)no1 [Example 88, N-(5-ethyl-1,2-oxazol-3-yl)-9,9-dimethyl-6-oxo-7,8,9,10-tetrahydro-6H-pyrido[3′,2′:4,5]pyrrolo[1,2-a][1,4]diazepine-2-carboxamide]
125 | CC(C)c1cc(NC(=O)c2ccc3cc4n(c3n2)CC(C)(C)CNC4=O)no1 [Example 89, 9,9-dimethyl-6-oxo-N-[5-(propan-2-yl)-1,2-oxazol-3-yl]-7,8,9,10-tetrahydro-6H-pyrido[3′,2′:4,5]pyrrolo[1,2-a][1,4]diazepine-2-carboxamide]
43 | CC1(C)CNC(=O)c2cc3ccc(C(=O)Nc4cc(C5CC5)on4)nc3n2C1 [Example 90, N-(5-cyclopropyl-1,2-oxazol-3-yl)-9,9-dimethyl-6-oxo-7,8,9,10-tetrahydro-6H-pyrido[3′,2′:4,5]pyrrolo[1,2-a][1,4]diazepine-2-carboxamide]
395 | Cc1cc(NC(=O)c2ccc3cc4n(c3n2)CC(C)(C)CNC4=O)no1 [Example 91, 9,9-dimethyl-N-(5-methyl-1,2-oxazol-3-yl)-6-oxo-7,8,9,10-tetrahydro-6H-pyrido[3′,2′:4,5]pyrrolo[1,2-a][1,4]diazepine-2-carboxamide]
502 | CC1(C)CNC(=O)c2cc3ccc(C(=O)Nc4cc(-c5ccccc5)on4)nc3n2C1 [Example 92, 9,9-dimethyl-6-oxo-N-(5-phenyl-1,2-oxazol-3-yl)-7,8,9,10-tetrahydro-6H-pyrido[3′,2′:4,5]pyrrolo[1,2-a][1,4]diazepine-2-carboxamide]
360 | CC1(C)CNC(=O)c2cc3ccc(C(=O)Nc4cc(Cc5ccccc5)on4)nc3n2C1 [Example 93, N-(5-benzyl-1,2-oxazol-3-yl)-9,9-dimethyl-6-oxo-7,8,9,10-tetrahydro-6H-pyrido[3′,2′:4,5]pyrrolo[1,2-a][1,4]diazepine-2-carboxamide]
3.3 | CC1CCNC(=O)c2cc3ccc(C(=O)Nc4cc(Cc5ccccc5)on4)nc3n21 (centres unmarked) [Example 94, N-(5-benzyl-1,2-oxazol-3-yl)-10-methyl-6-oxo-7,8,9,10-tetrahydro-6H-pyrido[3′,2′:4,5]pyrrolo[1,2-a][1,4]diazepine-2-carboxamide]
3.6 | O=C(Nc1cc(Cc2ccccc2)no1)c1ccc2cc3n(c2n1)CCCNC3=O [Example 95, N-(3-benzyl-1,2-oxazol-5-yl)-6-oxo-7,8,9,10-tetrahydro-6H-pyrido[3′,2′:4,5]pyrrolo[1,2-a][1,4]diazepine-2-carboxamide]
13 | CC1CCNC(=O)c2cc3ccc(C(=O)Nc4cc(Cc5ccccc5)no4)nc3n21 (centres unmarked) [Example 96, N-(3-benzyl-1,2-oxazol-5-yl)-10-methyl-6-oxo-7,8,9,10-tetrahydro-6H-pyrido[3′,2′:4,5]pyrrolo[1,2-a][1,4]diazepine-2-carboxamide]
490 | C[C@H]1CNC(=O)c2cc3ccc(C(=O)Nc4cc(Cc5ccccc5)on4)nc3n21 [Example 97, (9S)-N-(5-benzyl-1,2-oxazol-3-yl)-9-methyl-6-oxo-6,7,8,9-tetrahydropyrido[3′,2′:4,5]pyrrolo[1,2-a]pyrazine-2-carboxamide]
3.9 | C[C@@H]1CNC(=O)c2cc3ccc(C(=O)Nc4cc(Cc5ccccc5)on4)nc3n21 [Example 98, (9R)-N-(5-benzyl-1,2-oxazol-3-yl)-9-methyl-6-oxo-6,7,8,9-tetrahydropyrido[3′,2′:4,5]pyrrolo[1,2-a]pyrazine-2-carboxamide]

Source: patent US9073926B2, “Heterocyclic compounds containing a pyrrolopyridine or benzimidazole core” (Boehringer Ingelheim International GmbH, priority 2009, dated 2015)
